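Interpolation was linear, between the two tested concentrations surrounding the appropriate level; five concentrations were tested over 48 hours in 96-well plates. GI50: concentration for 50% inhibition of growth.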 Activity calls are given as the source filed them. Rule as the data show it: active = GI50 up to about 1.1 µM and inactive = higher.
Key:
Test in all cases: growth of human tumour cells (NCI), 48 h
[1] = system: HCT-116
[2] = system: NCI/ADR-RES
[3] = system: MDA-MB-231
[4] = system: SR
[5] = system: K562
[6] = system: MCF7
[7] = system: OVCAR-5
[8] = system: UACC-62
[9] = system: KM12
[10] = system: SNB-19
[11] = system: RXF 393
[12] = system: M14
[13] = system: HCT-15
[14] = system: NCI-H522
[15] = system: IGROV-1
[16] = system: SF-268
[17] = system: NCI-H460
[18] = system: SK-MEL-5
[19] = system: COLO 205
[20] = system: TK-10
[21] = system: SK-MEL-2
[22] = system: PC-3
[23] = system: LOX IMVI
[24] = system: SK-MEL-28
[25] = system: EKVX
[26] = system: A549
[27] = system: U-251
[28] = system: SW-620
[29] = system: OVCAR-3
[30] = system: A498
[31] = system: NCI-H226
[32] = system: CAKI-1
[33] = system: CCRF-CEM
[34] = system: UO-31
[35] = system: SK-OV-3
[36] = system: NCI-H23
[37] = system: ACHN
[38] = system: SN12C
[39] = system: HT-29
[40] = system: Malme-3M
[41] = system: SF-539
[42] = system: BT-549
[43] = system: OVCAR-8
[44] = system: SF-295
[45] = system: MDA-MB-435
[46] = system: T47D
[47] = system: DU-145
[48] = system: MOLT-4
[49] = system: HOP-62
[50] = system: SNB-75
[51] = system: 786-0
[52] = system: Hs-578T
[53] = system: HCC 2998
[54] = system: UACC-257
[55] = system: HL-60
[56] = system: OVCAR-4
[57] = system: HOP-92

Measured: GI50

CC(=O)Oc1cccc2c1C(=O)CCCC2
inactive: [1] > 100 µM | [2] > 100 µM | [3] > 100 µM | [4] > 100 µM | [5] > 100 µM | [6] > 100 µM | [7] > 100 µM | [8] > 100 µM | [9] > 100 µM | [10] > 100 µM | [11] > 100 µM | [12] > 100 µM | [14] > 100 µM | [15] > 100 µM | [16] > 100 µM | [17] > 100 µM | [18] > 100 µM | [19] > 100 µM | [20] > 100 µM | [21] > 100 µM | [22] > 100 µM | [23] > 100 µM | [24] > 100 µM | [25] > 100 µM | [26] > 100 µM | [27] > 100 µM | [28] > 100 µM | [29] > 100 µM | [30] > 100 µM | [31] > 100 µM | [32] > 100 µM | [33] > 100 µM | [34] > 100 µM | [35] > 100 µM | [36] > 100 µM | [37] > 100 µM | [38] > 100 µM | [39] > 100 µM | [40] > 100 µM | [41] > 100 µM | [42] > 100 µM | [43] > 100 µM | [44] > 100 µM | [45] > 100 µM | [46] > 100 µM | [47] > 100 µM | [48] > 100 µM | [49] > 100 µM | [51] > 100 µM | [52] > 100 µM | [53] > 100 µM | [54] > 100 µM | [55] > 100 µM | [56] > 100 µM
> 100 µM: [13]
active: [50] 0.0692 µM

CC(C)(C)[Si](C)(C)OCC1OC(n2cc(I)c(=O)[nH]c2=O)C(O[Si](C)(C)C(C)(C)C)C1O[Si](C)(C)C(C)(C)C (stereo unspecified)
29.8 µM: [13]
inactive: [2] > 100 µM | [3] 15.3 µM | [4] 28.1 µM | [6] 12.9 µM | [7] 24.8 µM | [8] 16.7 µM | [10] 19.5 µM | [12] 15.7 µM | [14] 9.68 µM | [15] 17.7 µM | [16] 21.1 µM | [17] 15.5 µM | [18] 16.6 µM | [57] 22.1 µM | [19] 19.1 µM | [21] > 10 µM | [22] 7.24 µM | [23] 12.5 µM | [25] 22 µM | [26] 11.4 µM | [28] 14.6 µM | [29] 14.3 µM | [31] 25.6 µM | [34] 23.8 µM | [35] 32.1 µM | [37] 15.2 µM | [38] 26.9 µM | [39] 14.3 µM | [40] 53.3 µM | [42] 24 µM | [43] 12.7 µM | [44] 15.2 µM | [46] 17.1 µM | [48] 10.7 µM | [49] 20.1 µM | [50] 16.1 µM | [52] 18.6 µM | [54] 10.5 µM | [56] 55.8 µM

Source: ChEMBL document CHEMBL1201862, “PubChem BioAssay data set” (2004)
